According to PubChem BioAssay AID1259407 (Chemical Carcinogenesis Research Information System (CCRIS), 2018):
“Also recorded” adds a separate entry of the source. Active and inactive are the calls of the source. The rule behind the calls is not given here.

Tested on: CCRIS mutagenicity, Ames/micronucleus/aberration tests
Test: CCRIS mutagenicity studies
[1] = Test System: AMES SALMONELLA TYPHIMURIUM, Strain/Indicator: TA98, Metabolic Activation: NONE, Method: PREINCUBATION
[2] = Test System: AMES SALMONELLA TYPHIMURIUM, Strain/Indicator: TA100, Metabolic Activation: NONE, Method: PREINCUBATION
[3] = Test System: AMES SALMONELLA TYPHIMURIUM, Strain/Indicator: TA1535, Metabolic Activation: NONE, Method: PREINCUBATION
[4] = Test System: AMES SALMONELLA TYPHIMURIUM, Strain/Indicator: TA1537, Metabolic Activation: NONE, Method: PREINCUBATION

SMILES: CCCCC(CC)CO (centres undefined)
- mutagenic call (Test System: AMES SALMONELLA TYPHIMURIUM, Strain/Indicator: TA98, Metabolic Activation: HAMSTER, LIVER, S-9, AROCLOR 1254 (10%), Method: PREINCUBATION): inactive; negative
- mutagenic call [1]: inactive; negative
- mutagenic call (Test System: AMES SALMONELLA TYPHIMURIUM, Strain/Indicator: TA98, Metabolic Activation: RAT LIVER S-9, PHENOBARBITAL AND BETA-NAPHTHOFLAVONE, Method: PREINCUBATION): inactive; negative
- mutagenic call (Test System: AMES SALMONELLA TYPHIMURIUM, Strain/Indicator: TA98, Metabolic Activation: RAT, LIVER, S-9, AROCLOR 1254 (10%), Method: PREINCUBATION): inactive; negative
- mutagenic call (Test System: AMES SALMONELLA TYPHIMURIUM, Strain/Indicator: TA98, Metabolic Activation: RAT, LIVER, S-9, KC 500, Method: PREINCUBATION): inactive; negative
- mutagenic call (Test System: AMES SALMONELLA TYPHIMURIUM, Strain/Indicator: TA100, Metabolic Activation: HAMSTER, LIVER, S-9, AROCLOR 1254 (10%), Method: PREINCUBATION): inactive; negative
- mutagenic call [2]: inactive; negative
- mutagenic call (Test System: AMES SALMONELLA TYPHIMURIUM, Strain/Indicator: TA100, Metabolic Activation: RAT LIVER S-9, PHENOBARBITAL AND BETA-NAPHTHOFLAVONE, Method: PREINCUBATION): inactive; negative
- mutagenic call (Test System: AMES SALMONELLA TYPHIMURIUM, Strain/Indicator: TA100, Metabolic Activation: RAT, LIVER, S-9, AROCLOR 1254 (10%), Method: PREINCUBATION): inactive; negative
- mutagenic call (Test System: AMES SALMONELLA TYPHIMURIUM, Strain/Indicator: TA100, Metabolic Activation: RAT, LIVER, S-9, KC 500, Method: PREINCUBATION): inactive; negative
- mutagenic call (Test System: AMES SALMONELLA TYPHIMURIUM, Strain/Indicator: TA1535, Metabolic Activation: HAMSTER, LIVER, S-9, AROCLOR 1254 (10%), Method: PREINCUBATION): inactive; negative
- mutagenic call [3]: inactive; negative
- mutagenic call (Test System: AMES SALMONELLA TYPHIMURIUM, Strain/Indicator: TA1535, Metabolic Activation: RAT LIVER S-9, PHENOBARBITAL AND BETA-NAPHTHOFLAVONE, Method: PREINCUBATION): inactive; negative
- mutagenic call (Test System: AMES SALMONELLA TYPHIMURIUM, Strain/Indicator: TA1535, Metabolic Activation: RAT, LIVER, S-9, AROCLOR 1254 (10%), Method: PREINCUBATION): inactive; negative
- mutagenic call (Test System: AMES SALMONELLA TYPHIMURIUM, Strain/Indicator: TA1535, Metabolic Activation: RAT, LIVER, S-9, KC 500, Method: PREINCUBATION): inactive; negative
- mutagenic call (Test System: AMES SALMONELLA TYPHIMURIUM, Strain/Indicator: TA1537, Metabolic Activation: HAMSTER, LIVER, S-9, AROCLOR 1254 (10%), Method: PREINCUBATION): inactive; negative
- mutagenic call [4]: inactive; negative
- mutagenic call (Test System: AMES SALMONELLA TYPHIMURIUM, Strain/Indicator: TA1537, Metabolic Activation: RAT LIVER S-9, PHENOBARBITAL AND BETA-NAPHTHOFLAVONE, Method: PREINCUBATION): inactive; negative
- mutagenic call (Test System: AMES SALMONELLA TYPHIMURIUM, Strain/Indicator: TA1537, Metabolic Activation: RAT, LIVER, S-9, AROCLOR 1254 (10%), Method: PREINCUBATION): inactive; negative
- mutagenic call (Test System: AMES SALMONELLA TYPHIMURIUM, Strain/Indicator: TA1537, Metabolic Activation: RAT, LIVER, S-9, KC 500, Method: PREINCUBATION): inactive; negative
- mutagenic call (Test System: AMES SALMONELLA TYPHIMURIUM, Strain/Indicator: TA1538, Metabolic Activation: NONE, Method: PREINCUBATION): inactive; negative
- mutagenic call (Test System: AMES SALMONELLA TYPHIMURIUM, Strain/Indicator: TA1538, Metabolic Activation: RAT, LIVER, S-9, KC 500, Method: PREINCUBATION): inactive; negative
- mutagenic call (Test System: E. COLI, Strain/Indicator: WP2 UVRA, Metabolic Activation: NONE, Method: PREINCUBATION): inactive; negative
- mutagenic call (Test System: E. COLI, Strain/Indicator: WP2UVRA, Metabolic Activation: NONE, Method: PREINCUBATION): inactive; negative
- mutagenic call (Test System: E. COLI, Strain/Indicator: WP2UVRA, Metabolic Activation: RAT LIVER S-9, PHENOBARBITAL AND BETA-NAPHTHOFLAVONE, Method: PREINCUBATION): inactive; negative
- mutagenic call (Test System: E. COLI, Strain/Indicator: WP2 UVRA, Metabolic Activation: RAT, LIVER, S-9, KC 500, Method: PREINCUBATION): inactive; negative

SMILES: CC1(c2ccc([N+](=O)[O-])cc2)CO1 (centres undefined)
- mutagenic call [2]: active; positive

SMILES: Oc1ccc(Cl)c(Cl)c1Cl
- mutagenic call (End Point: IN VITRO CHROMOSOMAL ABERRATIONS, Test System: CHINESE HAMSTER LUNG CELLS (CHL), Metabolic Activation: NONE): inactive; negative
- mutagenic call (End Point: IN VITRO CHROMOSOMAL ABERRATIONS, Test System: CHINESE HAMSTER LUNG CELLS (CHL), Metabolic Activation: RAT, LIVER, S-9, KC-400): inactive; negative
- mutagenic call (End Point: IN VITRO CHROMOSOMAL ABERRATIONS, Test System: CHINESE HAMSTER OVARY CELLS (CHO), Metabolic Activation: NONE): inactive; negative
- mutagenic call (End Point: IN VITRO CHROMOSOMAL ABERRATIONS, Test System: CHINESE HAMSTER OVARY CELLS (CHO), Metabolic Activation: RAT, LIVER, S-9, AROCLOR 1254): active; positive (structural changes); positive only at highest dose where a total of 25
- mutagenic call (End Point: IN VITRO CHROMOSOMAL ABERRATIONS, Test System: CHL CELLS, Metabolic Activation: S-9): inactive; positive (structural changes); multilaboratory comparison among 5 labs; 4 report; also recorded: inactive; positive (structural changes); multilaboratory comparison among 6 labs; 5 report
- mutagenic call (End Point: IN VITRO CHROMOSOMAL ABERRATIONS, Test System: CHO CELLS, Metabolic Activation: NONE): inactive; positive (structural changes); multilaboratory comparison among 5 labs; 4 report; also recorded: inactive; negative; multilaboratory comparison among 5 labs; 1 reported weakly positive; 4; also recorded: inactive; negative; multilaboratory comparison among 4 labs; negative except for 1 weak po
- mutagenic call (End Point: IN VITRO CHROMOSOMAL ABERRATIONS, Test System: CHO CELLS, Metabolic Activation: S-9): active; positive (structural changes); multilaboratory comparison among 6 labs; all repo; also recorded: inactive; positive (structural changes); multilaboratory comparison among 5 labs; 2 report
- mutagenic call (Test System: AMES SALMONELLA TYPHIMURIUM, Strain/Indicator: TA97, Metabolic Activation: HAMSTER, LIVER, S-9, AROCLOR 1254 (10 OR 30%), Method: PREINCUBATION): inactive; negative
- mutagenic call (Test System: AMES SALMONELLA TYPHIMURIUM, Strain/Indicator: TA97, Metabolic Activation: NONE, Method: PREINCUBATION): inactive; negative
- mutagenic call (Test System: AMES SALMONELLA TYPHIMURIUM, Strain/Indicator: TA97, Metabolic Activation: RAT, LIVER, S-9, AROCLOR 1254 (10 OR 30%), Method: PREINCUBATION): inactive; negative
- mutagenic call (Test System: AMES SALMONELLA TYPHIMURIUM, Strain/Indicator: TA98, Metabolic Activation: HAMSTER, LIVER, S-9, AROCLOR 1254 (10 OR 30%), Method: PREINCUBATION): inactive; negative
- mutagenic call [1]: inactive; negative
- mutagenic call (Test System: AMES SALMONELLA TYPHIMURIUM, Strain/Indicator: TA98, Metabolic Activation: RAT, LIVER, S-9, AROCLOR 1254 (10 OR 30%), Method: PREINCUBATION): inactive; negative
- mutagenic call (Test System: AMES SALMONELLA TYPHIMURIUM, Strain/Indicator: TA100, Metabolic Activation: HAMSTER, LIVER, S-9, AROCLOR 1254 (10 OR 30%), Method: PREINCUBATION): inactive; negative
- mutagenic call [2]: inactive; negative
- mutagenic call (Test System: AMES SALMONELLA TYPHIMURIUM, Strain/Indicator: TA100, Metabolic Activation: RAT, LIVER, S-9, AROCLOR 1254 (10 OR 30%), Method: PREINCUBATION): inactive; negative
- mutagenic call (Test System: AMES SALMONELLA TYPHIMURIUM, Strain/Indicator: TA1535, Metabolic Activation: HAMSTER, LIVER, S-9, AROCLOR 1254 (10 OR 30%), Method: PREINCUBATION): inactive; negative
- mutagenic call [3]: inactive; negative
- mutagenic call (Test System: AMES SALMONELLA TYPHIMURIUM, Strain/Indicator: TA1535, Metabolic Activation: RAT, LIVER, S-9, AROCLOR 1254 (10 OR 30%), Method: PREINCUBATION): inactive; negative
- mutagenic call (Test System: AMES SALMONELLA TYPHIMURIUM, Strain/Indicator: TA1537, Metabolic Activation: HAMSTER, LIVER, S-9, AROCLOR 1254 (30%), Method: PREINCUBATION): inactive; negative
- mutagenic call [4]: inactive; negative
- mutagenic call (Test System: AMES SALMONELLA TYPHIMURIUM, Strain/Indicator: TA1537, Metabolic Activation: RAT, LIVER, S-9, AROCLOR 1254 (30%), Method: PREINCUBATION): inactive; negative
